# Like-named read-outs stand apart in the source and are kept apart here.
# What was measured:
# [1] = test system: hSC-CMs (Cor.4U Cardiomyocytes); assay: Apoptosis assay (CellEvent Caspase-3/7 Green, IncuCyte ZOOM kinetics over 24 h); type: cell-based, human; design: key to Caspase / Caspase MEAN: % of time-matched vehicle control (green object area); conditions: for activity at 0.03 µM / activity at 0.1 µM / activity at 0.3 µM / activity at 1 µM / activity at 3 µM / activity at 30 µM: Homo sapiens, Cardiomyocyte, normalized to time-matched vehicle control; for Apoptosis (caspase-3/7 activation), result in words / Time to reach the maximum number of apoptotic cells: hSC-CMs, monitored over 24 h
# Summary of the method: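 Cor.4U cardiomyocytes were cultured 4 days at 5% CO2 and 37 °C, given a 2 h baseline, then treated with compound for 24 h. Caspase-3/7 green nuclear signal was imaged every 2 h, and total green object area per well (μm^2/well) was normalized to the time-matched vehicle control. At least three replicates were run per concentration.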
# PI3K p110γ = conditions: ref [23]–[25] (NVP-BEZ235), [28] (GDC-0941), [33] (CAL-101), [35] (CZC24832); read-out: Target IC50 p110γ; cited from earlier work
# PI3K p110δ = conditions: ref [23]–[25] (NVP-BEZ235), [27] (LY 294002), [28] (GDC-0941), [33] (CAL-101); read-out: Target IC50 p110δ; cited from earlier work
# PI3K p110α = conditions: ref [23]–[25] (NVP-BEZ235), [27] (LY 294002), [28] (GDC-0941), [31] (HS-173), [33] (CAL-101); read-out: Target IC50 p110α; cited from earlier work
# PI3K p110β = conditions: ref [23]–[25] (NVP-BEZ235), [27] (LY 294002), [28] (GDC-0941), [32] (TGX-221), [33] (CAL-101), [35] (CZC24832); read-out: Target IC50 p110β; cited from earlier work
# [2] = test system: hSC-CMs (Cor.4U Cardiomyocytes); assay: CardioExcyte 96 impedance and EFP recording (beating rate, base impedance); type: cell-based, human; conditions: for activity at 0.03 µM / activity at 0.3 µM / activity at 3 µM / activity at 30 µM: Homo sapiens, Cardiomyocyte, vs baseline before drug (taken as 100%)
# Summary of the method: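 hSC-CM monolayers (Cor.4U), cultured 4 days at 37 °C, 5% CO2, recorded spontaneously beating; impedance sampled at 1 kHz, EFP at 10 kHz. Beating rate taken as reciprocal of inter-spike interval in EFP. Each test concentration expressed as fractional change versus pre-drug baseline (100%).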
# [3] = test system: hSC-CMs (Cor.4U Cardiomyocytes); assay: ATP assay (CellTiter-Glo Luminescent Cell Viability Assay); type: cell-based, human; conditions: for viability at 0.03 µM / viability at 0.3 µM / viability at 3 µM / viability at 30 µM: Homo sapiens, Cardiomyocyte, normalized to time-matched DMSO control
# Summary of the method: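 Human stem-cell-derived Cor.4U cardiomyocytes (25,000–30,000/well), cultured 4 days at 37 °C, switched to serum-free BMCC medium 12 h before dosing. Cellular ATP quantified by CellTiter-Glo luminescence and normalized to time-matched DMSO controls; at least three replicates per concentration.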
# GSK-3β = conditions: ref [46] (CHIR99021), [48] (TWS119); read-out: Target IC50 GSK-3β; cited from earlier work
smiles,measurement,setting,value
"CS(=O)(=O)N1CCN(Cc2cc3nc(-c4cccc5[nH]ncc45)nc(N4CCOCC4)c3s2)CC1 [GDC-0941, 2-(1 H -Indazol-4-yl)-6-(4-methanesulfonyl-piperazin-1-ylmethyl)-4-morpholin-4-yl-thieno[3,2-d]pyrimidine]",activity at 0.03 µM,[1]; 2h,157%
same,activity at 0.03 µM,[1]; 24h,80%
same,activity at 0.1 µM,"[1]; 0.1 µM, 2h",138%
same,activity at 0.1 µM,"[1]; 0.1 µM, 24h",77%
same,activity at 0.3 µM,[1]; 2h,106%
same,activity at 0.3 µM,[1]; 24h,113%
same,activity at 1 µM,"[1]; 1 µM, 2h",104%
same,activity at 1 µM,"[1]; 1 µM, 24h",219%
same,"Apoptosis (caspase-3/7 activation), result in words",[1],induced apoptosis in hSC-CMs with a fast onset
same,Time to reach the maximum number of apoptotic cells,[1],≤ 12 h
O=c1cc(N2CCOCC2)oc2c(-c3ccccc3)cccc12 [LY 294002],activity at 0.03 µM,"[2]; 2h, read-out: BR",112%
same,activity at 0.03 µM,"[2]; 2h, read-out: Base Imp",72%
same,activity at 0.03 µM,"[2]; 24h, read-out: BR",111%
same,activity at 0.03 µM,"[2]; 24h, read-out: Base Imp",72%
same,activity at 0.3 µM,"[2]; 2h, read-out: BR",109%
same,activity at 0.3 µM,"[2]; 2h, read-out: Base Imp",71%
same,activity at 0.3 µM,"[2]; 24h, read-out: BR",94%
same,activity at 0.3 µM,"[2]; 24h, read-out: Base Imp",75%
same,activity at 3 µM,"[2]; 2h, read-out: BR",94%
same,activity at 3 µM,"[2]; 2h, read-out: Base Imp",70%
same,activity at 3 µM,"[2]; 24h, read-out: BR",63%
same,activity at 3 µM,"[2]; 24h, read-out: Base Imp",59%
same,activity at 30 µM,"[2]; 2h, read-out: BR",0%
same,activity at 30 µM,"[2]; 2h, read-out: Base Imp",50%
same,activity at 30 µM,"[2]; 24h, read-out: BR",0%
same,activity at 30 µM,"[2]; 24h, read-out: Base Imp",33%
same,"Effect on cardiomyocyte function in 3D surface plots (beating rate, base impedance, ATP), in words","[2]; hSC-CMs, 2 and 24 h",pronounced effects
same,Reduction of base impedance,"[2]; hSC-CMs, 2 and 24 h",more than 20%
same,Reduction of beating rate,"[2]; hSC-CMs, 2 and 24 h",more than 20%
same,viability at 0.03 µM,[3]; 2h,89%
same,viability at 0.03 µM,[3]; 24h,95%
same,viability at 0.3 µM,[3]; 2h,85%
same,viability at 0.3 µM,[3]; 24h,91%
same,viability at 3 µM,[3]; 2h,90%
same,viability at 3 µM,[3]; 24h,78%
same,viability at 30 µM,[3]; 2h,103%
same,viability at 30 µM,[3]; 24h,86%
same,Decrease of ATP level,"[3]; hSC-CMs, after 24 h of incubation",20–25%
same,activity at 0.03 µM,[1]; 2h,194%
same,activity at 0.03 µM,[1]; 24h,95%
same,activity at 0.3 µM,[1]; 2h,130%
same,activity at 0.3 µM,[1]; 24h,93%
same,activity at 3 µM,[1]; 2h,110%
same,activity at 3 µM,[1]; 24h,217%
same,activity at 30 µM,[1]; 2h,62%
same,activity at 30 µM,[1]; 24h,428%
same,"Apoptosis (caspase-3/7 activation), result in words",[1],induced apoptosis in hSC-CMs with a fast onset
same,Time to reach the maximum number of apoptotic cells,[1],≤ 12 h
Nc1cccc(-c2cc3c(Oc4cccc(O)c4)ncnc3[nH]2)c1 [TWS119],IC50,GSK-3β,30 nM
same,"Effect on cardiomyocyte function in 3D surface plots (beating rate, base impedance, ATP), in words",[2],minimal functional effect
same,"Effect on hSC-CMs function (base impedance and beating rate), in words",[2],did not produce functionally relevant changes
same,BR,"[2]; 2h, 0.01 µM",107
same,Base Imp,"[2]; 2h, 0.01 µM",90
same,BR,"[2]; 2h, 0.1 µM",102
same,Base Imp,"[2]; 2h, 0.1 µM",86
same,BR,"[2]; 2h, 1 µM",103
same,Base Imp,"[2]; 2h, 1 µM",91
same,BR,"[2]; 2h, 10 µM",103
same,Base Imp,"[2]; 2h, 10 µM",90
same,BR,"[2]; 24h, 0.01 µM",107
same,Base Imp,"[2]; 24h, 0.01 µM",86
same,BR,"[2]; 24h, 0.1 µM",105
same,Base Imp,"[2]; 24h, 0.1 µM",91
same,BR,"[2]; 24h, 1 µM",104
same,Base Imp,"[2]; 24h, 1 µM",88
same,BR,"[2]; 24h, 10 µM",99
same,Base Imp,"[2]; 24h, 10 µM",84
same,ATP,"[3]; 2h, 0.01 µM",94
same,ATP,"[3]; 2h, 0.1 µM",98
same,ATP,"[3]; 2h, 1 µM",98
same,ATP,"[3]; 2h, 10 µM",96
same,ATP,"[3]; 24h, 0.01 µM",102
same,ATP,"[3]; 24h, 0.1 µM",98
same,ATP,"[3]; 24h, 1 µM",98
same,ATP,"[3]; 24h, 10 µM",104
same,"Effect on ATP level, in words","[3]; hSC-CMs, up to the highest test concentrations",did not impact the ATP level
same,Caspase,"[1]; 2h, 0.01 µM",142
same,Caspase,"[1]; 2h, 0.1 µM",127
same,Caspase,"[1]; 2h, 1 µM",127
same,Caspase,"[1]; 2h, 10 µM",105
same,Caspase,"[1]; 24h, 0.01 µM",137
same,Caspase,"[1]; 24h, 0.1 µM",114
same,Caspase,"[1]; 24h, 1 µM",96
same,Caspase,"[1]; 24h, 10 µM",113
same,"Apoptosis (caspase-3/7 activation), result in words",[1],did not have any functionally-relevant effect
